Measured values taken from ChEMBL document CHEMBL4004791, “Ceylonins A-F, Spongian Diterpene Derivatives That Inhibit RANKL-Induced Formation of Multinuclear Osteoclasts, from the Marine Sponge Spongia ceylonensis” (J Nat Prod, 2017).
Active and inactive are the calls of the source. The calls are words filed in the database; no cut-off is given here.

Legend:
[1] = (§1) Inhibition of RANKL-induced osteoclastogenesis in mouse RAW264 cells at 50 uM after 4 days by TRAP staining based assay relative to control; format: functional; details: RAW264.7, 96 h
[2] = Cytotoxicity against mouse RAW264 cells at 50 uM; format: cell-based; details: raw264, 50 µM
RAW264 [3] = assay: Inhibition of RANKL-induced osteoclastogenesis in mouse RAW264 cells after 4 days by TRAP staining based assay; format: functional, cell-based
RAW264 [4] = assay: as §1; format: functional

Compound | inhibition at 50 µM [1] [%] | Activity [2] | inhibition (RAW264 [3]) | inhibition (RAW264 [4])
C[C@]12CCC[C@](C)(C(=O)O)[C@@H]1CC[C@@]1(C)C3=C(CC[C@H]21)[C@H]1C[C@H](C(=O)O)[C@@H]3O1 | 47 |  |  | 
C[C@]12CCC[C@](C)(C(=O)O)[C@@H]1CC[C@@]1(C)C3=C(CC[C@H]21)[C@@H]1C[C@@H](C(=O)O)[C@H]3O1 | 31 |  |  | 
C[C@]12CCC[C@](C)(C(=O)O)[C@@H]1CC[C@@]1(C)C3=C(CC[C@H]21)[C@H]1O[C@@H]3C[C@@H]1C(=O)O | 28 |  |  | 
C[C@]12CCC[C@](C)(C(=O)O)[C@@H]1CC[C@@]1(C)C3=C(CC[C@H]21)[C@@H]1O[C@H]3C[C@@H]1C(=O)O | 70 | Non-Toxic | Dose-dependent effect | 
C[C@]12CCC[C@](C)(C(=O)O)[C@@H]1CC[C@@]1(C)c3cocc3CC[C@H]21 |  |  |  | inactive
